Patent US20220331286A1, “CANNABIS LIMITS CANCER STEM CELL GROWTH IN POORLY DIFF[…]” (The Regents of the University of California, priority 2021, published 2022)
Entries after “also recorded” stand apart in the source; their conditions may differ.

Experiments:
breast cancer cell lines = details: not normal breast epithelium; cited from earlier work
tumor = assay: Cytostatic effect: tumor-cell coverage of the well-plate (FIG. 2); type: cell-based; details: at higher concentrations (FIG. 2)
Excerpt: In FIG. 2, the cystostatic effect of WIN 55,212-2 are shown.

[1] = tested on: PL-12 well-differentiated pancreatic tumor cells; assay: Viable cell count (Trypan Blue) after treatment; type: cell-based, human; details: for percent decrease in cell numbers of PL12, in words: various concentrations of WIN 55,212-2, CDDP 50 μg/ml
Excerpt: (§1) Six different pancreatic tumor cell lines each characterized at poorly, intermediate and well differentiated stages pathologically by other laboratories previously were used to determine phenotype, susceptibility to NK cell-mediated cytotoxicity and secretion of IFN-γ directly correlating with the differentiation stages of the tumors. […] Furthermore, the stage of differentiation of the tumors was correlated with sensitivity to NK cell mediated cytotoxicity in pancreatic tumor cells. […] Therefore, a direct correlation between augmented sensitivity to NK-mediated lysis and poor differentiation of pancreatic tumors was evident from these experiments. For the following experiments MP2 and PL12 were used as representative tumor types for poorly differentiated and well differentiated tumors respectively. Human pancreatic cancer cell line MIA PaCa-2 (MP2), was provided by Dr. Guido Eibl (UCLA David Geffen School of Medicine) and PL12 was provided by Dr. Nicholas Cacalano (UCLA Jonsson Comprehensive Cancer Center). MP2 tumors were cultured with DMEM in supplement with 10% FBS and 1% Penicillin-Streptomycin (Gemini Bio-Products, CA). PL12 pancreatic tumors were cultured in RMPI 1640 medium supplemented with 10% FBS and 1% penicillin-streptomycin.
(§2) RPMI 1640 (Gibco, Thermo Fisher Scientific, USA) complete medium with 10% fetal bovine serum (FBS) (Gemini Bio-Products, San Diego, Calif., USA), 1.4% of non-essential amino acid (Gibco, Thermo Fisher Scientific, USA), 1.4% sodium pyruvate (Gibco, Thermo Fisher Scientific, USA), 0,15% of sodium bicarbonate (Fisher Scientific, Waltham, Mass., USA) and 1% antibiotics/antimycotics (Gemini Bio-Products, San Diego, Calif., USA) was used for oral tumor culture. DMEM (Gibco, Thermo Fisher Scientific, USA) supplemented with 10% FBS and 1% antibiotics/antimycotics was used for pancreatic tumor cell culture. Oral squamous carcinoma cells (OSCCs) and oral squamous carcinoma stem cells (OSCSCs) were isolated from cancer patients with tongue tumor at UCLA. Human pancreatic cancer cell lines MIA PaCa-2 (MP2) and PL-12 were generously provided by Dr. Guido Eibl (UCLA David Geffen School of Medicine) and by Dr. Nicholas Cacalano (UCLA Jonsson Comprehensive Cancer Center), respectively. […] CDDP was purchased from Ronald Reagan UCLA Medical Center Pharmacy. […] TNF-α and IFN-γ were purchased from Peprotech (Rockyhill, N.J.).
(§3) The number of viable cells was counted under light microscope using Trypan Blue staining (Sigma, Mo., USA).

[2] = tested on: MIA PaCa-2 (MP2) poorly differentiated/stem like pancreatic tumor cells; assay: Viable cell count (Trypan Blue) after treatment; type: cell-based, human
Excerpt: as §1, §2, §3

[3] = tested on: PL-12 well-differentiated pancreatic tumor cells; assay: Microscopy of cell morphology and viability; type: cell-based, human; details: different concentrations of WIN 55,212-2; CDDP 50 μg/mL; 24 hours
[4] = tested on: oral squamous carcinoma stem cells (OSCSCs)
[5] = tested on: Oral squamous carcinoma cells (OSCCs)
[6] = tested on: oral squamous carcinoma stem cells (OSCSCs); assay: Viable cell count (Trypan Blue) after treatment; type: cell-based, human; details: WIN 55,212-2 10, 25, 50, 100 μM, CDDP 50 μg/ml, 24 hours
Procedure: (§4) Oral squamous carcinoma cells (OSCCs) and oral squamous carcinoma stem cells (OSCSCs) were isolated from cancer patients with tongue tumors at UCLA. The cells were cultured in RPMI 1640 complete medium with 10% fetal bovine serum (FBS) 1.4% Antibiotic-Antimycotic, 1% sodium pyruvate, 1.4% non-essential amino acids, 1% L-glutamine, 0.2% gentamicin (Gemini Bio-Products, CA, USA), and 0.15% sodium bicarbonate (Fisher Scientific, PA, USA).
(§5) As shown in FIG. 1A-1E, OSCSCs are affected more by WIN 55,212-2 than OSCCs. Both OSCCs (oral squamous carcinoma cells) and OSCSCs (oral squamous carcinoma stem cells) were treated with various concentrations of WIN 55,212-2 (10, 25, 50, and 100 μM) and CDDP (50 μg/ml), and the cell numbers were determined after 24 hours of treatment.
as §2, §3

[7] = tested on: Oral squamous carcinoma cells (OSCCs); assay: Viable cell count (Trypan Blue) after treatment; type: cell-based, human; details: for killing / decrease in cell numbers of OSCCs, in words: WIN 55,212-2 10, 25, 50, 100 μM, CDDP 50 μg/ml
Procedure: as §4, §5, §2, §3

[8] = tested on: oral squamous carcinoma stem cells (OSCSCs); assay: Microscopy of cell morphology and viability; type: cell-based, human; details: WIN 55,212-2 even at the lowest concentrations; CDDP 50 μg/mL; 24 h
[9] = tested on: MIA PaCa-2 (MP2) poorly differentiated/stem like pancreatic tumor cells; assay: Microscopy of cell morphology and viability; type: cell-based, human; details: different concentrations of WIN 55,212-2; CDDP 50 μg/mL; 24 hours
[10] = tested on: PL-12 well-differentiated pancreatic tumor cells; assay: Cell death by propidium iodide staining and flow cytometry; type: cell-based, human
Excerpt: (§6) Propidium iodide (PI) staining was used to determine the cell death by flow cytometry.

[11] = tested on: MIA PaCa-2 (MP2) poorly differentiated/stem like pancreatic tumor cells; assay: as above; type: cell-based, human
Excerpt: as §6

[12] = tested on: mouse models of breast cancer, non-small cell lung cancer, and non-melanoma skin cancer; details: cited from earlier work
[13] = tested on: Oral squamous carcinoma cells (OSCCs); assay: Microscopy of cell morphology and viability; type: cell-based, human
[14] = tested on: PL-12 well-differentiated pancreatic tumor cells; details: WIN 55,212-2, 48 h; mesylate
[15] = tested on: oral squamous carcinoma stem cells (OSCSCs); assay: Cell death by propidium iodide staining and flow cytometry; type: cell-based, human
Procedure: (§7) After an overnight incubation the cells were washed twice and stained with propidium iodide (PI) at a concentration of 3 μg/ml. Flow cytometric analysis was performed using Attune flow cytometer results were analyzed using FlowJo vX software (Ashland, Oreg.).

[16] = tested on: Oral squamous carcinoma cells (OSCCs); assay: as above; type: cell-based, human; details: 24 hours
Procedure: as §7

[17] = tested on: MIA PaCa-2 (MP2) poorly differentiated/stem like pancreatic tumor cells
[18] = different concentrations of WIN 55,212-2, dose-dependent, 24-48 hours
[19] = WIN 55,212-2 (5-50 μM), 24 hours, mesylate
[20] = various concentrations of WIN 55,212-2, 24 hours and 48 hours (FIG. 4A-4B)
[21] = WIN 55,212-2 (5-50 μM), 24 hours, vs untreated control, mesylate
[22] = WIN 55,212-2 25-100 μM, 24-48 hours
[23] = WIN 55,212-2 50 μM or higher, CDDP 50 μg/mL, 24 h

C=C(C)[C@@H]1CCC(C)=C[C@H]1c1c(O)cc(CCCCC)cc1O [CBD, Cannabidiol]
effect on radiotherapy / anti-proliferative effects of radiation (breast cancer cell lines): failed to enhance anti-proliferative effects of radiation

CCCCCc1cc(O)c2c(c1)OC(C)(C)[C@@H]1CCC(C)=C[C@@H]21 [THC, Tetrahydrocannabinol]
effect on radiotherapy / anti-proliferative effects of radiation (breast cancer cell lines): failed to enhance anti-proliferative effects of radiation

CCCCCCC(C)(C)c1cc(O)c2c(c1)OC(C)(C)C1CCC(=O)CC21 (centres unmarked) [nabilone]
effect on radiotherapy / anti-proliferative effects of radiation (breast cancer cell lines): failed to enhance anti-proliferative effects of radiation

CS(=O)(=O)O.Cc1c(C(=O)c2cccc3ccccc23)c2cccc3c2n1[C@H](CN1CCOCC1)CO3 [WIN 55,212-2, (R)-(+)-[2,3-Dihydro-5-methyl-3-(4-morpholinylmethyl)pyrrolo[1,2,3-de]-1,4-benzoxazin-6-yl]-1-naphthalenylmethanone mesylate]
cytostatic effect (fold change of the tumor-cell coverage of the well-plate) (tumor): arrests the tumor growth
decreased numbers of viable cells, PL-12 [1, 18]: 50-70%
percent decrease in cell numbers of PL12, in words [1]: smaller decreases in cell numbers
decreased numbers of viable cells, MP2 [2, 18]: 60-85%
percent decrease in cell numbers of MP2s, in words ([2]; various concentrations of WIN 55,212-2): significantly greater than PL12s
morphology/viability of PL-12 under the microscope [3]: maintained their morphology and remained viable
CD44 cell surface expression, OSCSCs [4, 19]: decreased expressions
CD54 cell surface expression, OSCSCs [4, 19]: decreased expressions
PD-L1 (B7H1) cell surface expression, OSCSCs [4, 19]: decreased expressions
MHC class I expression on the cell surface, OSCSCs [4, 20]: decreases in MHC class I expression
CD44 cell surface expression, OSCCs [5, 21]: Decreased expression
CD54 cell surface expression, OSCCs [5, 21]: Decreased expression
MHC class I cell surface expression, OSCCs [5, 21]: Decreased expression
PD-L1 (B7H1) cell surface expression, OSCCs [5, 21]: Decreased expression
MHC class I expression on the cell surface, OSCCs [5, 20]: decreases in MHC class I expression
killing / decrease in cell numbers of OSCSCs, in words ([6]; mesylate): significantly killed; also recorded: significantly greater than OSCCs
killing / decrease in cell numbers of OSCCs, in words ([7]; 24 hours, mesylate): much less; also recorded: smaller decrease in cell numbers
decrease in cell numbers of OSCC (viable cells) ([7]; WIN 55,212-2 10-100 μM, 24 hours): 10-25%
morphology/attachment of OSCSCs under the microscope [8]: became detached from the culture plates
morphology/viability of MP2 under the microscope [9]: largely lost their shape and morphology, and had detached from the plates
percentages of dead cells, PL-12 (PI staining) [10, 22]: up to 20%
percentages of dead cells, MP2 (PI staining) [11, 22]: approximately 30%
increase in cell death in MP2s compared with PL12 (PI staining) ([11]; various concentrations of WIN 55,212-2, 48 hours): greater higher increase in cell death
tumor burden, lung metastasis and tumor induced angiogenesis in vivo [12]: reduce tumor burden, lung metastasis and tumor induced angiogenesis
morphology/viability of OSCCs under the microscope [13, 23]: some of the OSCCs still remained viable but some rounded up and detached and were not viable
morphology/viability of OSCCs under the microscope ([13]; low concentrations of WIN 55,212-2, 24 h): remained viable
CD44 cell surface expression, PL-12 [14]: decreased expressions; also recorded: Decreased cell surface expression
CD54 cell surface expression, PL-12 [14]: decreased expressions; also recorded: decreased the expression
amounts of cell death in OSCSCs compared with those induced by CDDP ([15]; WIN 55,212-2 25-100 μM, compiled data): either similar or higher when compared to those induced by CDDP
cell death in OSCSCs compared with OSCCs (PI staining) ([15]; all WIN 55,212-2 concentrations tested, 24 hours, mesylate): higher cell death
cell death in OSCCs (PI staining) ([16]; WIN 55,212-2 75 and 100 μM): up to 10%
CD44 cell surface expression, MP2 ([17]; WIN 55,212-2, 48 h, mesylate): decreased expressions; also recorded: Decreased cell surface expression
CD54 cell surface expression, MP2 ([17]; WIN 55,212-2, 48 h, mesylate): decreased expressions; also recorded: decreased the expression
MHC class I cell surface expression, MP2 ([17]; WIN 55,212-2, 48 h, mesylate): decreased expressions; also recorded: decreased on MP2
PD-L1 (B7H1) cell surface expression, MP2 ([17]; WIN 55,212-2, 48 h, mesylate): decreased expressions; also recorded: decreased in MP2
extent of decrease in all surface receptor expressions, MP2 compared with PL-12 ([17]; WIN 55,212-2 treatments (FIG. 17F)): significantly greater than those seen in PL-12 tumor cells
effect on radiotherapy / anti-proliferative effects of radiation (breast cancer cell lines): synergistically increased the effects of radiotherapy

N.N.[Cl][Pt][Cl] [CDDP, cis-diaminedichloridoplatinum (II)]
percent decrease in cell numbers of PL12, in words [1]: greater decrease in cell numbers
morphology/viability of PL-12 under the microscope [3]: affected both PL-12 and MP2 morphologically
killing / decrease in cell numbers of OSCSCs, in words [6]: not killed
inhibition of cell growth, OSCCs compared with OSCSCs ([7]; CDDP 50 μg/mL, 24 h): inhibit cell growth of OSCCs more than those seen with OSCSCs
killing / decrease in cell numbers of OSCCs, in words ([7]; 24 hours): killed significantly; also recorded: greater decreases in cell numbers
morphology/attachment of OSCSCs under the microscope [8]: the majority of these cells were still attached to the cell culture plate
morphology/viability of MP2 under the microscope [9]: affected both PL-12 and MP2 morphologically
cell death in PL-12 compared with MP2 (PI staining) ([10]; CDDP 50 μg/mL): higher in PL-12 in the representative experiment (FIG. 16B) and similar in compiled data
morphology/viability of OSCCs under the microscope [13, 23]: loss of morphology, and the majority were detached from the plates
cell death in OSCCs compared with OSCSCs (PI staining) ([16]; CDDP 50 μg/mL): significant cell death in OSCCs when compared to OSCSCs; also recorded: more cell death in OSCCs when compared to OSCSCs
